Test results taken from patent US20230357363A1, “PROTEIN DOUBLE-SHELL NANOSTRUCTURES AND THEIR USE” (The Board of Trustees of the Leland Stanford Junior …, priority 2020, published 2023).

System: BODIPY-conjugated pKID domain of CREB protein
Assay: Fluorescence polarization assay of MBP-KIX-apoferritin with BODIPY-conjugated pKID
Type: binding
Details: FP assay, protein titrated against BODIPY-pKID, read 30 minutes after mixing
Text: FIGS. 1A-1D. The design of double-shell system. FIG. 1A. The double shell system is shown by cartoon with apoferritin as inner cage, MBP as outer cage, and small cargo proteins in the middle portion. FIG. 1B. Strategy of plasmid construction. The cargo protein KIX C-terminus is fused to the apoferritin N-terminus with the C-terminal 668-672 residues of KIX and N-terminal 1-5 residues of apoferritin truncated for stability. Several mutations (shown as lightning) were also incorporated on the interface between KIX and apoferritin to enhance stability. The MBP tag is fused to the KIX N-terminus. FIG. 1C. Design of mutations that stabilize the KIX domain of CBP on the apoferritin complex. […] Fluorescence polarization assay using the BODIPY-conjugated phosphorylated KID domain of CREB and KIX, MBP-KIX-apoferritin construct 3, or MBP-apoferritin. […]
Fluorescence polarization (FP) using the MBP-KIX-apoferritin and the BODIPY-conjugated phosphorylated pKID domain of CREB was performed as described previously^16. […] Phosphorylation efficiency of pKID, which was assessed using a SDS-gel containing Phos-tag™ Acrylamide (FUJIFILM), was almost 100%. pKID was purified using the phosphoprotein enrichment kit (Takara). […] Molar concentration of KIX, MBP-KIX-apoferritin construct 3, and MBP-apoferritin was calculated as a monomer. FP was measured 30 minutes after mixing using INFINITE M1000 PRO (TECAN). […]

Substance: MKF: 24-mer MBP-KIX-apoferritin fusion protein double-shell nanostructure from construct 3 (T27C, A31C, E169C, C177S, E237C)
- binding affinity of KIX for the BODIPY-conjugated pKID domain of CREB (function of KIX in the 24-mer complex): still maintained its function
